“Also recorded” adds a separate entry of the source.
Experiments:
harmaline-induced tremor = test: DBS therapeutic window in harmaline-induced tremor; format: in vivo; conditions: APV and CNQX 10 mg/kg each i.p.; DPCPX 4 mg/Kg i.p.
Method: Harmaline was administed i.p. 20 min prior to DBS (20-30 mg/kg) (Wilms et al., “Animal Models of Tremor,” Mov Disord 14:557-71 (1999); Martin et al., “Harmaline-Induced Tremor as a Potential Preclinical Screening Method for Essential Tremor Medications,” Mov Disord 20:298-305 (2005), which are hereby incorporated by reference in their entirety). […] For electrode and microdialysis implantation, mice were anaesthetized with a mixture of Ketamine (60 mg/kg) and Xylazine (10 mg/kg) and placed into a stereotactic frame. The skull was exposed and concentric bipolar microelectrodes (SNE-100, KOPF) or microdialysis probes (Bioanalytical Systems, Inc.) were implanted into the ventrolateral thalamic nucleus at the following coordinates: AP: −1.4 mm; ML: ±0.9 mm; DV: −3.7 mm. The electrodes or microdialysis probes were attached to the skull with dental cement. […] Tremor was recorded by either EMG electrodes placed in the occipital muscles or by the Convuls-1 pressure transducer (Columbus Instruments) in awake freely moving animals. […]
. […] The minimal efficient current amplitude of DBS was determined by methodically changing the stimulation parameters (FIG. 4C). […]

thalamic neurons [1] = test: Drug effect on evoked EPSPs (eEPSP) in thalamic slices, current clamp; format: cell-based, mouse; conditions: DPCPX 100 nM
Method: Thalamic slices (300 μm) from 14-18 day old mouse pups (FVB/NJ mice; Jackson Laboratory) were cut on a Vibratome (TPI) in an ice-cold cutting solution containing (in mM): 2.5 KCl, 1.25 NaH2PO4, 10 MgSO4, 5 CaCl2, 10 glucose, 26 NaHCO3, 230 sucrose and gassed with 5% CO2 and 95% O2. Slices were incubated for a minimum of 1 hr in a slice solution containing (in mM): 126 NaCl, 2.5 KCl, 1.25 NaH2PO4, 2 MgCl2, 2 CaCl2, 10 glucose, and 26 NaHCO3, pH 7.4, and gassed with 5% CO2 and 95% O2 at room temperature. The slices were transferred to a recording chamber (1.5 ml) perfused with aCSF at room temperature or 32° C. Whole-cell current clamp recordings were obtained using a 700B Multiclamp amplifier (Axon Instruments) (Jiang et al., “A Kainate Receptor Increases The Efficacy of Gabaergic Synapses,” Neuron 30:503-13 (2001); Tian et al., “An Astrocytic Basis of Epilepsy,” Nat Med 11:973-81 (2005), which are hereby incorporated by reference in their entirety). Concentric bipolar stimulating electrodes (FHC) were placed ˜100-400 μm ventromedial to the patched VL thalamic neuron. Stimulation was delivered through a constant isolated current source (ISO-Flex stimulus isolator with a Master-8-vp stimulator; AMPI) and consisted of monophasic 60 μs square pulses of varying amplitude (15, 25, 50 μA) and frequency (25, 75, 125, 200 Hz). Based upon maximum current amplitude and the surface area of the electrode, it is estimated that the maximum charge density was in the range of ˜1-10 μC/cm^2. The artifacts of the HFS signal were blanked and staggered to allow continuous observation of the 2.5 Hz signal (Anderson et al., “Selective Attenuation of Afferent Synaptic Transmission as a Mechanism of Thalamic Deep Brain Stimulation-Induced Tremor Arrest,” J Neurosci 26:841-50 (2006), which is hereby incorporated by reference in its entirety). Adenosine measurements were detected using needle shaped electrode (Pt/Ir wire) biosensors (Sarissa Biomedical). Calibration was carried out at the beginning and end of each slice experiment in the bath above the slice. Measurements were obtained ˜100 μm from the stimulation electrode in the thalamic slice. […].
To further analyze the role of adenosine in HFS, the effect of perfusion with an aCSF containing 1-100 μM adenosine in thalamic slices was studied. […]. […] The AMPA receptor antagonist, CNQX could not be tested due to its direct effect on EPSCs (Wang et al., “Astrocytic Ca(2+) Signaling Evoked by Sensory Stimulation in Vivo,” Nat Neurosci 9:816-23 (2006), which is hereby incorporated by reference in its entirety) (FIG. 3G). […]. […]

thalamic neurons [2] = test: HFS-induced membrane depolarization of thalamic neurons; format: cell-based, mouse; conditions: thalamic slices during HFS
thalamic neurons [3] = test: HFS-induced depression of eEPSPs in thalamic slices, pharmacology; format: cell-based, mouse
adenosine deaminase = target: T1, adenosine deaminase (Homo sapiens, UniProt P00813); conditions: at 27° C.; cited from earlier work
T1 sequence (P00813 1-363): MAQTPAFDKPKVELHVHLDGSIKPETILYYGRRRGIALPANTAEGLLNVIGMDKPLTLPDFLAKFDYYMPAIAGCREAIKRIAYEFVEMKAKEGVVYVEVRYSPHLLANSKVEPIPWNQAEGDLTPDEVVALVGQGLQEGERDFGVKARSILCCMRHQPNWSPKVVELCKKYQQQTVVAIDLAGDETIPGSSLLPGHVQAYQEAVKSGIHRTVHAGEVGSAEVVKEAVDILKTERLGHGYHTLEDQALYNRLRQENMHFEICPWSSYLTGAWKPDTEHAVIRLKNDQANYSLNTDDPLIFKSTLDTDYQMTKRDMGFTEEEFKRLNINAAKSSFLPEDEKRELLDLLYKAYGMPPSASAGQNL

P2 receptors = conditions: cited from earlier work
Ecto-ATPase [4] = conditions: Crack et al.; cited from earlier work
Ecto-ATPase [5] = conditions: Drakulich et al.; cited from earlier work
Rat Parotid Ecto-ATPase = conditions: Dowd et al.; cited from earlier work
thalamic slices = test: Extracellular adenosine by biosensor during HFS of thalamic slices; format: cell-based, mouse; conditions: 50 μM
Method: Thalamic slices (300 μm) from 14-18 day old mouse pups (FVB/NJ mice; Jackson Laboratory) were cut on a Vibratome (TPI) in an ice-cold cutting solution containing (in mM): 2.5 KCl, 1.25 NaH2PO4, 10 MgSO4, 5 CaCl2, 10 glucose, 26 NaHCO3, 230 sucrose and gassed with 5% CO2 and 95% O2. Slices were incubated for a minimum of 1 hr in a slice solution containing (in mM): 126 NaCl, 2.5 KCl, 1.25 NaH2PO4, 2 MgCl2, 2 CaCl2, 10 glucose, and 26 NaHCO3, pH 7.4, and gassed with 5% CO2 and 95% O2 at room temperature. The slices were transferred to a recording chamber (1.5 ml) perfused with aCSF at room temperature or 32° C. Whole-cell current clamp recordings were obtained using a 700B Multiclamp amplifier (Axon Instruments) (Jiang et al., “A Kainate Receptor Increases The Efficacy of Gabaergic Synapses,” Neuron 30:503-13 (2001); Tian et al., “An Astrocytic Basis of Epilepsy,” Nat Med 11:973-81 (2005), which are hereby incorporated by reference in their entirety). Concentric bipolar stimulating electrodes (FHC) were placed ˜100-400 μm ventromedial to the patched VL thalamic neuron. […] Adenosine measurements were detected using needle shaped electrode (Pt/Ir wire) biosensors (Sarissa Biomedical). […]

[6] = target: T2, Ecto-5′-nucleotidase CD73 (Rattus norvegicus, UniProt P21588); conditions: Sato et al., rat hearts; cited from earlier work
T2 sequence (P21588 29-551): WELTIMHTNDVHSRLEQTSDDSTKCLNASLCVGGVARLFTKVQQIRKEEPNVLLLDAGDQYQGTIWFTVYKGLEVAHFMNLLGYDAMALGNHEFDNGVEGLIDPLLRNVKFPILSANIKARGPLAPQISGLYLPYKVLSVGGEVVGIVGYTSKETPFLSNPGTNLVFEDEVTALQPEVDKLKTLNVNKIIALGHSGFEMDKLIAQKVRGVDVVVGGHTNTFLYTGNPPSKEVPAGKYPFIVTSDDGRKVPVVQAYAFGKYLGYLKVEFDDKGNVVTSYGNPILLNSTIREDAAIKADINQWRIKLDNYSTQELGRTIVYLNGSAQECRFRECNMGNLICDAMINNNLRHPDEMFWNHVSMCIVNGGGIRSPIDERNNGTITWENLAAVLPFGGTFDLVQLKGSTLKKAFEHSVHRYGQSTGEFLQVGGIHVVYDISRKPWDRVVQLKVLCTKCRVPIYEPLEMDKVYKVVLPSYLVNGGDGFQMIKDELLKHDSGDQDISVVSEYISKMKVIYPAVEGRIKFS

## CCCn1c(=O)c2[nH]c(C3CCCC3)nc2n(CCC)c1=O [DPCPX]
harmaline-induced tremor
  effect on the ability of DBS to reduce harmaline-induced tremor: involuntary movements rather than tremor reduction
  threshold for DBS-induced involuntary movements: developed involuntary movements at stimulation intensities below the therapeutic range
Thalamic neurons [1]
  effect on adenosine-induced reduction of eEPSPs: blocked the effect of adenosine; also recorded: reversibly attenuated the reduction
Thalamic neurons [2]
  effect on HFS-induced depolarization: no effect
Thalamic neurons [3]; 300 nM, directly stimulated pathways
  time for EPSPs to recover to pre-stimulation values after HFS: 12.4 ± 6.1 s
Thalamic neurons [3]; HFS 125 Hz, 250 μA, 10 sec, 32° C., separate electrodes
  effect on HFS-induced depression of eEPSPs, heterosynaptic pathways: attenuated the depression of eEPSPs; also recorded: potently attenuated the HFS-induced suppression of eEPSPs
Thalamic neurons [3]; same electrode for HFS and eEPSPs
  effect on HFS-induced depression of eEPSPs, homosynaptic (directly stimulated) pathways: reduced depression of eEPSPs after, but not during, HFS; also recorded: attenuated this reduction following, but not during HFS

## CC(=O)Nc1ccc(O)cc1 [acetaminophen]
Adenosine deaminase
  Ki: 126 µM

## CCN(CC)c1ncnc2c1ncn2C1OC(COP(=O)(O)OP(=O)(O)C(Br)(Br)P(=O)(O)O)C(O)C1O [ARL67156, 6-N,N-diethyl-D-beta, gamma-dibromomethyleneATP]
P2 receptors
  effect on P2 receptors: lack of or only has weak effect
Ecto-ATPase [4]
  IC50: 4.6 µM
Ecto-ATPase [5]
  Ki: 0.255 µM
Rat Parotid Ecto-ATPase
  IC50: 120 µM
Thalamic slices
  HFS-induced increase in extracellular adenosine: reduction in the HFS-induced adenosine increase
Thalamic slices; listed as ARL
  HFS-induced increase in extracellular adenosine: reduced adenosine increases during HFS; also recorded: did not completely block the rise in adenosine
Thalamic neurons [3]; 50 μM, HFS 250 μA, 100 μs, 5 sec, 20° C.
  effect on HFS-induced depression of eEPSPs (FIG. 3G): attenuated HFS-induced depression of eEPSPs

## COc1ccc(Cl)cc1C(=O)NCCc1ccc(S(=O)(=O)NC(=O)NC2CCCCC2)cc1 [giberclamide]
[6]
  IC50: 10.5 µM

From patent US20100284984A1, “ADENOSINE AND ITS MIMETICS. MODULATORS, TRANSPORT INHIBITORS, AND RECEPTOR AGONISTS AS A THERAPEUTIC TOOL TO REPLACE OR IMPROVE THE EFFICACY OF DEEP BRAIN STIMULATION” (University of Rochester, priority 2007, published 2010)
